According to patent publication US20240166658A1, “PORPHYRIN DERIVATIVES AND USES THEREOF” (University of Tasmania, priority 2021, published 2024):

What was measured:
[1] = Soil tests; details: 5 g dried soil, 20 mL host in dichloromethane, no pre-treatment or pre-concentration
Description: Soil was taken front the top 15 cm of the garden bed outside the Chemistry Building at the University of Tasmania and dried in the oven at 40° C. for approximately 60 hours. This soil was then spiked with 10 ppm PFOA: Two 50 g dried soil samples were transferred into two separate 1 L polypropylene containers. One sample was combined with a dichloromethane-PFOA solution (200 mL of 6×10^−6 M PFOA in DCM) and the other was combined with only dichloromethane (200 mL). The solutions were left to evaporate. 5 g of the resulting samples was transferred to high density polyethylene tubes.
Combinations of sensor molecule (9) in different organic solvents were added to spiked and control samples, and the results were compared. Water was also added to see if a biphasic system was beneficial for extraction from soil. • A=20 mL dichloromethane+medium chain sensor (9) • B=10 mL of water-->20 mL dichloromethane+medium chain sensor (9) • C=20 mL ethyl acetate+medium chain sensor (9) • D=20 mL toluene+medium chain sensor (9)
Dried soil samples (5 g) were also combined with 20 mL of host (9) in dichloromethane and shaken to show a colour change observable in the solvent.

[2] = RGB response curve, high PFCA concentration; details: host 5.01×10^−6 M, dichloromethane
Excerpt: The present inventors investigated the colorimetric responses for host (12) with “high” concentrations of PFCA (where [host]<[guest]), and “low” concentrations of PFCA (where [host]>[guest]). Generally, RGB response values will increase with increasing concentrations of PFCA until the host has been saturated; beyond the saturation limit, RGB response values are similar. When there was an excess of guest, the response values could only be used as a threshold indication for PFCA concentrations.
RGB response curves were established by combining solutions of host (12) (5.01×10^−6 M) with solutions of PFOA (0-16 ppm, 3.86×10^−5 M) in dichloromethane. […] Thus, when establishing a calibration curve, the relative proportion of free host to host−PFCA complex limiting the variability of colour response must be considered for the application.
For the “high” PFCA concentration experiment, the PFOA generated calibration curve (y=0.0401 ln(x)+0.2366, R^2=0.9677) (FIG. 17) begins to level out at ca. 2 ppm. Above that concentration, the RGB response values are difficult to differentiate.

O=C(Nc1ccccc1-c1c2nc(c(-c3ccccc3NC(=O)C(F)(F)C(F)(F)C(F)(F)C(F)(F)C(F)(F)C(F)(F)C(F)(F)F)c3ccc([nH]3)c(-c3ccccc3NC(=O)C(F)(F)C(F)(F)C(F)(F)C(F)(F)C(F)(F)C(F)(F)C(F)(F)F)c3nc(c(-c4ccccc4NC(=O)C(F)(F)C(F)(F)C(F)(F)C(F)(F)C(F)(F)C(F)(F)C(F)(F)F)c4ccc1[nH]4)C=C3)C=C2)C(F)(F)C(F)(F)C(F)(F)C(F)(F)C(F)(F)C(F)(F)C(F)(F)F [host (9), α,α,α,α-5,10,15,20-tetrakis(2-(pentadecafluorooctanoylamino)phenyl)porphyrin]
colour change with soil sample [1]: discernible by the naked eye

O=C(Nc1ccccc1-c1c2nc(c(-c3ccccc3NC(=O)C(F)(F)C(F)(F)C(F)(F)C(F)(F)C(F)(F)C(F)(F)C(F)(F)C(F)(F)C(F)(F)C(F)(F)C(F)(F)F)c3ccc([nH]3)c(-c3ccccc3NC(=O)C(F)(F)C(F)(F)C(F)(F)C(F)(F)C(F)(F)C(F)(F)C(F)(F)C(F)(F)C(F)(F)C(F)(F)C(F)(F)F)c3nc(c(-c4ccccc4NC(=O)C(F)(F)C(F)(F)C(F)(F)C(F)(F)C(F)(F)C(F)(F)C(F)(F)C(F)(F)C(F)(F)C(F)(F)C(F)(F)F)c4ccc1[nH]4)C=C3)C=C2)C(F)(F)C(F)(F)C(F)(F)C(F)(F)C(F)(F)C(F)(F)C(F)(F)C(F)(F)C(F)(F)C(F)(F)C(F)(F)F [host (12), α,α,α,α-5,10,15,20-tetrakis(2-(tricosafluorododecanoylamino)phenyl) porphyrin]
PFOA concentration at which calibration curve begins to level out [2]: ca. 2 ppm
